Assay results reported in PMC3899824 (Investigational new drugs, 2013).
Like-named read-outs stand apart in the source and are kept apart here.

Key:
tubulin = experiment: Cell-free tubulin polymerization assay; assay type: biochemical; conditions: 60m at 340 nm
[1] = test system: MM.1S multiple myeloma cells; conditions: 150 nM PC-046, 16h, baseline 3.14 (0.15)
[2] = test system: 8226/S multiple myeloma cells; experiment: Apoptosis by AnnexinV/PI flow cytometry, 8226/S; assay type: cell-based, human; conditions: 200 nM PC-046 24h, without active caspase inhibitor
[3] = test system: 8226/Dox40 myeloma cells (MDR-1 overexpressing); conditions: read-out: IC50, nM (Mean ± SEM); 8226/Dox40, 72h, MTT
MCF-7 breast cells = conditions: read-out: IC50, nM (Mean ± SEM); MCF-7, 72h, MTT
[4] = test system: human MiaPaCa-2 pancreatic cancer cell line xenograft; conditions: SCID mice bearing MiaPaCa-2 flank tumors; cited from earlier work
[5] = test system: MM.1S multiple myeloma cells; conditions: 24h, 25-100 nM
U266 myeloma cells = conditions: read-out: IC50, nM (Mean ± SEM); U266, 72h, MTT
[6] = test system: 8226/S (Multiple Myeloma) human tumor xenograft; experiment: Xenograft efficacy, 8226/S; conditions: 50 mg/kg IP
TRK-B = conditions: at pharmacologically-achievable concentrations; cited from earlier work
PC-3 prostate cells = conditions: read-out: IC50, nM (Mean ± SEM); PC-3, 72h, MTT
[7] = test system: 8226/S multiple myeloma cells; conditions: 24h, 25-100 nM
PDGF-alpha = conditions: at pharmacologically-achievable concentrations; cited from earlier work
[8] = test system: H69S small cell lung cancer cells; conditions: read-out: IC50, nM (Mean ± SEM), 72h, MTT
HCT-116 colon cells = conditions: read-out: IC50, nM (Mean ± SEM); HCT-116 parental, 72h, MTT
[9] = test system: DU-145 (Prostate Cancer) human tumor xenograft; conditions: 55 mg/kg IP, Dailyx5, off 7d, repeat 2×
[10] = test system: human pancreatic cancer cells; conditions: cited from earlier work
NIH-H929 myeloma cells = conditions: read-out: IC50, nM (Mean ± SEM); NIH-H929, 72h, MTT
[11] = test system: 8226/S multiple myeloma cells; conditions: 150 nM PC-046, 16h, baseline 3.31 (0.14)
[12] = test system: 8226/IM10 myeloma cells (imexon-resistant); conditions: read-out: IC50, nM (Mean ± SEM); 8226/IM10, 72h, MTT
FLT-1 = conditions: FLT-1, at pharmacologically-achievable concentrations; cited from earlier work
[13] = test system: U266 multiple myeloma cells; conditions: U266, 24h, 25-100 nM
[14] = test system: OCI-AM-3 (Acute Myeloid Leukemia) human tumor xenograft; conditions: 55 mg/kg IP, Dailyx5, off 5d, repeat 1×
[15] = test system: caspases 3, 8 and 9 in MM.1S cells; experiment: Western blot of caspases 3, 8 and 9; conditions: 24h, 0 – 500 nM
MM.1S myeloma cells = conditions: read-out: IC50, nM (Mean ± SEM), 72h, MTT
[16] = test system: MM.1S multiple myeloma cells; experiment: Apoptosis by AnnexinV/PI flow cytometry, MM.1S; assay type: cell-based, human; conditions: 200 nM PC-046 24h, without active caspase inhibitor
[17] = test system: DPC4 (-/-) BxPC3 pancreatic cancer cell line vs DPC4 (+/+) isogenic cell line; conditions: cited from earlier work
[18] = test system: H929 multiple myeloma cells; conditions: H929, 24h, 25-100 nM
[19] = SCID mice; for AUC: variance per Yuan in brackets
[20] = test system: HCT-116 DPC4 (−/−) colon cells
DU-145 prostate cells = conditions: read-out: IC50, nM (Mean ± SEM); DU-145, 72h, MTT
8226/S myeloma cells = conditions: read-out: IC50, nM (Mean ± SEM), 72h, MTT
[21] = test system: PC-3 (Prostate Cancer) human tumor xenograft; conditions: 55 mg/kg IP, Dailyx5, off 5d, repeat 1×
[22] = 50–55 mg/kg IP, daily × 5 days, 5 to 7 days off, 2–3 courses
[23] = test system: MV-4-11 (Acute Myeloid Leukemia) human tumor xenograft; conditions: 55 mg/kg IP, Dailyx5, off 5d, repeat 2×
[24] = not given; remark: listed apart in the source
OCI-AML3 leukemia cells = conditions: read-out: IC50, nM (Mean ± SEM); OCI-AML3, 72h, MTT
MDA-MB231 breast cells = conditions: read-out: IC50, nM (Mean ± SEM); MDA-MB231, 72h, MTT
BxPC-3 pancreatic cells = conditions: read-out: IC50, nM (Mean ± SEM); BxPC-3, 72h, MTT
PDGF-beta = conditions: at pharmacologically-achievable concentrations; cited from earlier work
MV-4-11 leukemia cells = conditions: read-out: IC50, nM (Mean ± SEM); MV-4-11, 72h, MTT
[25] = test system: MiaPaCa-2 pancreatic cells; conditions: read-out: IC50, nM (Mean ± SEM); MiaPaCa-2, 72h, MTT
Panc-1 pancreatic cells = conditions: read-out: IC50, nM (Mean ± SEM); Panc-1, 72h, MTT
8226/Dox40 cell line = conditions: no reference given; cited from earlier work

CC(=O)O[C@H]1C(=O)[C@@]2(C)[C@H]([C@H](OC(=O)c3ccccc3)[C@]3(O)C[C@H](OC(=O)[C@H](O)[C@@H](NC(=O)c4ccccc4)c4ccccc4)C(C)=C1C3(C)C)[C@]1(OC(C)=O)CO[C@@H]1C[C@@H]2O [paclitaxel]
effect on tubulin polymerization (tubulin; 10 μM): stabilized tubulin polymerization

COc1ccc(-c2cnc(-c3ccncc3-c3cccc(OC)c3)o2)cc1 [PC-046, 5-(4-methoxyphenyl)pyridine-4-yl]
% positive histone H3 cells, mean (SEM) [1]: 17.3 (1.28) %
AnnexinV-positive cells [2]: 30.7%
IC50 [3]: 188 ± 6.1 nM
IC50 (MCF-7 breast cells): 166 ± 26.3 nM
activity against flank tumor xenografts [4]: active
cell cycle effect (DNA content) [5]: accumulation of cells in the G2/M-phase
IC50 (U266 myeloma cells): 70.1 ± 16.2 nM
tumor growth inhibition in vivo (in words) ([6]; 8226/S myeloma xenograft): no growth inhibition was observed
Mean (SD), mm^3, DPC046 (tumor AUC) ([6]; 8226/S, Every third day, repeat 10×, control 27292.6 (13688.8)): 28516.9 (9067.3) mm^3
Tumor AUC % Change ([6]; 8226/S, Every third day, repeat 10×, vs control, p NS): +4.5%
kinase inhibition in vitro (TRK-B): inhibit
IC50 (PC-3 prostate cells): 105 ± 30.2 nM
cell cycle effect (DNA content) [7]: significant accumulation of cells in S-phase
kinase inhibition in vitro (PDGF-alpha): inhibit
IC50 [8]: 240 ± 10.9 nM
IC50 (HCT-116 colon cells): 99.5 ± 15.8 nM
Mean (SD), mm^3, DPC046 (tumor AUC) ([9]; control 69969.6 (22735.3)): 45801.8 (23344.4) mm^3
Tumor AUC % Change ([9]; vs control, p 0.04886): −34.50%
cell cycle effect [10]: accumulate in G2/M phases
effect on tubulin polymerization (tubulin; 5 μM): inhibits tubulin polymerization
IC50 (NIH-H929 myeloma cells): 163 ± 13.9 nM
% positive histone H3 cells, mean (SEM) [11]: 34.70 (5.84) %
IC50 [12]: 102 ± 27.5 nM
kinase inhibition in vitro (FLT-1): inhibit
cell cycle effect (DNA content) [13]: accumulation of cells in the G2/M-phase
Mean (SD), mm^3, DPC046 (tumor AUC) ([14]; control 17752.6 (8665.6)): 12433.4 (4647.1) mm^3
Tumor AUC % Change ([14]; vs control, p NS): −29.90%
caspase activation by western blot [15]: cleavage of three major caspases, 3, 8, and 9
IC50 (MM.1S myeloma cells): 162 ± 39.6 nM
AnnexinV-positive cells [16]: 32.6%
selectivity index previously reported [17]: 1.74 x
cell cycle effect (DNA content) [18]: accumulation of cells in the G2/M-phase
Cmax ([19]; 100mg/kg IP): 4010 ng/mL
T ½ ([19]; 100mg/kg IP): 5.17 h
Tmax ([19]; 100mg/kg IP): 0.08 h
AUC ([19]; 100mg/kg IP): 5.22(0.68) ^# hr* μg/mL
Clearance ([19]; 100mg/kg IV): 332 mL/min/kg
Cmax ([19]; 100mg/kg IV): 1660 ng/mL
T ½ ([19]; 100mg/kg IV): 8.40 h
Tmax ([19]; 100mg/kg IV): 0.17 h
Vol. Dist. ([19]; 100mg/kg IV): 240.3 L/kg
AUC ([19]; 100mg/kg IV): 5.02 (0.29) ^# hr* μg/mL
F (bioavailabilty) ([19]; 100mg/kg PO vs IV): 0.71
Cmax ([19]; 100mg/kg PO): 1550 ng/mL
T ½ ([19]; 100mg/kg PO): 3.17 h
Tmax ([19]; 100mg/kg PO): 0.08 h
AUC ([19]; 100mg/kg PO): 3.55(0.75) ^# hr* μg/mL
oral bioavailability ([19]; 100 mg/kg oral gavage compared to the IV route): 71%
increased activity for the DPC4 (-/-) HCT-116 cell line compared to the wild type HCT-116 cells ([20]; ratio of IC50 values): roughly 2 fold
IC50 ([20]; read-out: IC50, nM (Mean ± SEM), HCT-116 DPC4 (−/−), 72h, MTT): 52 ± 5.3 nM
IC50 (DU-145 prostate cells): 160 ± 39.4 nM
IC50 (8226/S myeloma cells): 134 ± 13.8 nM
Mean (SD), mm^3, DPC046 (tumor AUC) ([21]; control 10438.6 (4303.9)): 8238.1 (2506.2) mm^3
Tumor AUC % Change ([21]; vs control, p NS): −21.10%
lethality [22]: no lethality
loss of body weight [22]: about 10%
Mean (SD), mm^3, DPC046 (tumor AUC) ([23]; control 18702.7 (7654.1)): 11309.3 (5293.3) mm^3
Tumor AUC % Change ([23]; vs control, p 0.0374): −39.50%
lethal acute dose (mouse, in vivo): 150 mg/kg
time to death after administration (mouse, in vivo, 150 mg/kg): 2 to 5 days
acutely tolerated dose (single dose, non-tumor bearing mice): 100 mg/kg
mean PC-046 concentrations in the femurs (bone marrow flushings) ([24]; 30 and 60 minutes after 100 mg/kg IP): approximately 0.07 μg/mL
femur concentrations ([24]; 30 and 60 minutes after 100 mg/kg IP, converted): 195 nM
mean plasma concentration ([24]; 30 minutes after 100 mg/kg IP): 1750 ng/mL
mean plasma concentration ([24]; 45 minutes after 100 mg/kg IP): 1930 ng/mL
mean plasma concentration ([24]; 60 minutes after 100 mg/kg IP): 962 ng/mL
IC50 (OCI-AML3 leukemia cells): 177 ± 31.8 nM
IC50 (MDA-MB231 breast cells): 206 ± 49.2 nM
IC50 (BxPC-3 pancreatic cells): 199 ± 48.2 nM
kinase inhibition in vitro (PDGF-beta): inhibit
IC50 (MV-4-11 leukemia cells): 193 ± 10.8 nM
IC50 [25]: 296 ± 72.1 nM
IC50 (Panc-1 pancreatic cells): 215 ± 49.4 nM

CC[C@]1(O)C[C@H]2CN(CCc3c([nH]c4ccccc34)[C@@](C(=O)OC)(c3cc4c(cc3OC)N(C=O)[C@H]3[C@@](O)(C(=O)OC)[C@H](OC(C)=O)[C@]5(CC)C=CCN6CC[C@]43[C@@H]65)C2)C1 [vincristine]
effect on tubulin polymerization (tubulin; 10 μM): a reduction in the amount of tubulin polymer formed
resistance conferred by ABCB1 (Pgp/MDR1) (8226/Dox40 cell line): approximately 200 fold
